In PMC10377601, “Side Chain-Modified Benzothiazinone Derivatives with Anti-Mycobacterial Activity” (Biomedicines, 2023):

Experiments:
[1] = tested on: Mycobacterium tuberculosis; set-up: method as in PMID 24500695; settings: whole-cell activity; cited from earlier work
[2] = tested on: M. tuberculosis H37Rv; assay: MIC determination by microplate alamar blue assay (MABA); type: cell-based; settings: Mycobacterium tuberculosis
[3] = target: T1, recombinant M. tuberculosis DprE1 enzyme (Mycobacterium tuberculosis, UniProt P9WJF1); assay: DprE1 inhibition, Amplex Red/peroxidase coupled assay; type: biochemical; settings: Mtb DprE1
T1 construct: made in house; host or cells: E. coli

[4] = in vitro; type: in vitro ADME; set-up: dose or concentration left out as unconfirmed; settings: human, microsomes, pH 7.4
Protocol: The compounds’ metabolic stability were determined in human liver microsomes. A solution of microsomes (0.2 mg/mL) containing the compounds […], NADPH (1 mM), and phosphate buffer (100 mM, pH 7.4) were prepared. Pre-incubation was conducted at 37 °C for 10 min. There was addition of 50 µL and 5 mM NADPH to initiate the reaction. At 5, 15, 30, 60, or 120 min, 30 µL of reaction solution was taken out and quenched with 300 µL internal standard tolbutamide (10 ng/mL) in cold CH3CN. The mixture was centrifuged at 6000 rpm for 15 min at 4 °C. Then, 100 μL supernatant was diluted with 100 uL ultrapure water (Millipore, ZMQS50F01). The solution was analyzed via LC/MS analysis.

T1 sequence (P9WJF1 whole entry): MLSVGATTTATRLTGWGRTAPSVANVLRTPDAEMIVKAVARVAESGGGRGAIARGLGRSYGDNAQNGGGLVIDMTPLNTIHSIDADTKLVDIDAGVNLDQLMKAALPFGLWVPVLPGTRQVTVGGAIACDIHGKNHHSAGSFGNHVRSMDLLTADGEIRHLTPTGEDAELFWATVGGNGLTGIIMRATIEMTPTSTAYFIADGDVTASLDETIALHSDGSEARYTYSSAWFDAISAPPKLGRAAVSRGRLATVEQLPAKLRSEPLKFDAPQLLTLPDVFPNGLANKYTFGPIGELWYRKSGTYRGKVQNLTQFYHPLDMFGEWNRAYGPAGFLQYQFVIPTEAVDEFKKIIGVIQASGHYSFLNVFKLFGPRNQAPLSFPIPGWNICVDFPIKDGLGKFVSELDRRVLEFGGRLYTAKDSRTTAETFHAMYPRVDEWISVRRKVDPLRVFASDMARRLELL

| SMILES | MIC ([2]; 168 h, Mtb H37Rv, MABA) | MIC ([2]; Mtb H37Rv, MABA) | further results |
| --- | --- | --- | --- |
| C[C@H]1COC2(CCN(c3nc(=O)c4cc(C(F)(F)F)cc([N+](=O)[O-])c4s3)CC2)O1 [BTZ043] |  |  | minimal inhibitory concentration (MIC) [1]: lower than 0.004 µM |
| CN(Cc1cn(C2CCCCC2)nn1)c1nc(=O)c2cc(C(F)(F)F)cc([N+](=O)[O-])c2s1 [Compound 1, 2-{[(1-cyclohexyl-1H-1,2,3-triazol-4-yl)methyl](methyl)amino}-BTZ] | 0.032 µM | 0.032 µM |  |
| CN(Cc1cn(-c2ccncc2)nn1)c1nc(=O)c2cc(C(F)(F)F)cc([N+](=O)[O-])c2s1 [Compound 5] |  | 0.047 µM |  |
| CN(Cc1cn(-c2cccnc2)nn1)c1nc(=O)c2cc(C(F)(F)F)cc([N+](=O)[O-])c2s1 [Compound 6] |  | 0.17 µM |  |
| CN(Cc1cn(-c2ccc(-c3ccccc3)cc2)nn1)c1nc(=O)c2cc(C(F)(F)F)cc([N+](=O)[O-])c2s1 [Compound 7] |  | 0.44 µM |  |
| CN(Cc1cn(-c2ccc3ccccc3c2)nn1)c1nc(=O)c2cc(C(F)(F)F)cc([N+](=O)[O-])c2s1 [Compound 8] |  | 0.057 µM |  |
| CN(Cc1cn(-c2cccc3ccccc23)nn1)c1nc(=O)c2cc(C(F)(F)F)cc([N+](=O)[O-])c2s1 [Compound 9] |  | 0.217 µM |  |
| CN(Cc1cn(-c2ccc(F)cc2)nn1)c1nc(=O)c2cc(C(F)(F)F)cc([N+](=O)[O-])c2s1 [Compound 12] | 0.012 µM | 0.012 µM |  |
| CN(Cc1cn(-c2cccc(F)c2)nn1)c1nc(=O)c2cc(C(F)(F)F)cc([N+](=O)[O-])c2s1 [Compound 13] | 0.008 µM | 0.008 µM |  |
| CN(Cc1cn(-c2ccccc2F)nn1)c1nc(=O)c2cc(C(F)(F)F)cc([N+](=O)[O-])c2s1 [Compound 14] | 0.27 µM | 0.27 µM |  |
| CN(Cc1cn(-c2cccc(Cl)c2)nn1)c1nc(=O)c2cc(C(F)(F)F)cc([N+](=O)[O-])c2s1 [Compound 15] | 0.014 to 0.207 µM | 0.014 µM |  |
| CN(Cc1cn(-c2cccc(Br)c2)nn1)c1nc(=O)c2cc(C(F)(F)F)cc([N+](=O)[O-])c2s1 [Compound 16] | 0.014 to 0.207 µM | 0.055 µM |  |
| CN(Cc1cn(-c2cccc(I)c2)nn1)c1nc(=O)c2cc(C(F)(F)F)cc([N+](=O)[O-])c2s1 [Compound 17] | 0.014 to 0.207 µM | 0.133 µM |  |
| COc1cccc(-n2cc(CN(C)c3nc(=O)c4cc(C(F)(F)F)cc([N+](=O)[O-])c4s3)nn2)c1 [Compound 18] | 0.014 to 0.207 µM | 0.12 µM |  |
| Cc1cccc(-n2cc(CN(C)c3nc(=O)c4cc(C(F)(F)F)cc([N+](=O)[O-])c4s3)nn2)c1 [Compound 19, 2-{methyl[1-(m-tolyl)-1H-1,2,3-triazol-4-yl](methyl)amino}-BTZ] | 0.014 to 0.207 µM | 0.061 µM |  |
| CN(Cc1cn(-c2cccc(C(F)(F)F)c2)nn1)c1nc(=O)c2cc(C(F)(F)F)cc([N+](=O)[O-])c2s1 [Compound 20] | 0.014 to 0.207 µM | 0.04 µM |  |
| CN(Cc1cn(-c2cccc(C#N)c2)nn1)c1nc(=O)c2cc(C(F)(F)F)cc([N+](=O)[O-])c2s1 [Compound 21, 3-{4-[(methyl(8-nitro-4-oxo-6-(trifluoromethyl)-4H-benzo[e][1,3]thiazin-2-yl)amino)methyl)-1H-1,2,3-triazol-1-yl)benzonitrile] | 0.014 to 0.207 µM | 0.207 µM |  |
| CN(Cc1cn(-c2ccc(F)c(F)c2)nn1)c1nc(=O)c2cc(C(F)(F)F)cc([N+](=O)[O-])c2s1 [Compound 22] | < 0.023 µM | 0.014 µM |  |
| CN(Cc1cn(-c2cc(F)cc(F)c2)nn1)c1nc(=O)c2cc(C(F)(F)F)cc([N+](=O)[O-])c2s1 [Compound 23] | < 0.023 µM | 0.016 µM |  |

| SMILES | MIC ([2]; 168 h, Mtb H37Rv, MABA) | MIC ([2]; Mtb H37Rv, MABA) | further results |
| --- | --- | --- | --- |
| CN(Cc1cn(-c2c(F)cccc2F)nn1)c1nc(=O)c2cc(C(F)(F)F)cc([N+](=O)[O-])c2s1 [Compound 24] |  | 0.259 µM | IC50 [3]: 7200 nM |
| CN(Cc1cn(-c2ccc(F)cc2F)nn1)c1nc(=O)c2cc(C(F)(F)F)cc([N+](=O)[O-])c2s1 [Compound 25] |  | 0.023 µM |  |
| CN(Cc1cn(-c2ccc(Cl)c(Cl)c2)nn1)c1nc(=O)c2cc(C(F)(F)F)cc([N+](=O)[O-])c2s1 [Compound 26] |  | 0.036 µM | IC50 [3]: 20 nM; MIC ([2]; H37Rv, Table S1): 4 ng/mL |
| CN(Cc1cn(-c2ccc(F)c(Br)c2)nn1)c1nc(=O)c2cc(C(F)(F)F)cc([N+](=O)[O-])c2s1 [Compound 27] |  | 0.055 µM | IC50 [3]: 7200 nM; MIC ([2]; H37Rv, Table S1): 129 ng/mL |
| CN(Cc1cn(-c2ccc(F)c(Cl)c2)nn1)c1nc(=O)c2cc(C(F)(F)F)cc([N+](=O)[O-])c2s1 [Compound 28] |  | 0.029 µM | IC50 [3]: 41 nM; MIC ([2]; H37Rv, Table S1): 8 ng/mL |
| CN(Cc1cn(-c2ccc(Cl)cc2Cl)nn1)c1nc(=O)c2cc(C(F)(F)F)cc([N+](=O)[O-])c2s1 [Compound 29] |  | 0.023 µM | IC50 [3]: 24 nM; MIC ([2]; H37Rv, Table S1): 4 ng/mL |
| CN(Cc1cn(-c2cc(Cl)cc(Cl)c2)nn1)c1nc(=O)c2cc(C(F)(F)F)cc([N+](=O)[O-])c2s1 [Compound 30] |  | 0.047 µM | IC50 [3]: 90 nM; MIC ([2]; H37Rv, Table S1): 6 ng/mL |
| CN(Cc1coc(-c2ccccc2)n1)c1nc(=O)c2cc(C(F)(F)F)cc([N+](=O)[O-])c2s1 [Compound 31, 2-{methyl[(2-phenyloxazol-4-yl)methyl]amino}-BTZ] |  | 0.006 µM | CLint scaled [4]: 51.7 mL/min/kg; half-life [4]: 33.6 min; IC50 [3]: 220 nM; MIC ([2]; H37Rv, Table S1): 13 ng/mL |
| CN(Cc1coc(-c2ccc(F)cc2)n1)c1nc(=O)c2cc(C(F)(F)F)cc([N+](=O)[O-])c2s1 [Compound 32] |  | 0.006 µM | IC50 [3]: 750 nM; MIC ([2]; H37Rv, Table S1): 16 ng/mL |
| CN(Cc1coc(-c2cccc(F)c2)n1)c1nc(=O)c2cc(C(F)(F)F)cc([N+](=O)[O-])c2s1 [Compound 33] |  | 0.021 µM | IC50 [3]: 74 nM; MIC ([2]; H37Rv, Table S1): 3 ng/mL |
| CN(Cc1csc(-c2ccccc2)n1)c1nc(=O)c2cc(C(F)(F)F)cc([N+](=O)[O-])c2s1 [Compound 34, 2-{methyl[(2-phenylthiazol-4-yl)methyl]amino}-BTZ] | 0.015 µM | 0.015 µM | CLint scaled [4]: 71.6 mL/min/kg; half-life [4]: 24.3 min; IC50 [3]: 69 nM; MIC ([2]; H37Rv, Table S1): 3 ng/mL |
| CN(Cc1csc(-c2cccc(F)c2)n1)c1nc(=O)c2cc(C(F)(F)F)cc([N+](=O)[O-])c2s1 [Compound 35] | 0.032 µM | 0.032 µM | IC50 [3]: 65 nM; MIC ([2]; H37Rv, Table S1): 7 ng/mL |
| CN(Cc1csc(-c2ccc(F)cc2)n1)c1nc(=O)c2cc(C(F)(F)F)cc([N+](=O)[O-])c2s1 [Compound 36, 2-{[(2-(4-fluorophenyl)thiazol-4-yl)methyl](methyl)amino}-BTZ] | 0.034 µM | 0.034 µM | CLint scaled [4]: 25.5 mL/min/kg; half-life [4]: 68.2 min |
| CN(Cc1nnc(-c2cccc(F)c2)o1)c1nc(=O)c2cc(C(F)(F)F)cc([N+](=O)[O-])c2s1 [Compound 38] |  | 0.006 µM |  |
| CN(Cc1nnc(-c2ccc(F)cc2)o1)c1nc(=O)c2cc(C(F)(F)F)cc([N+](=O)[O-])c2s1 [Compound 39] |  | 0.006 µM |  |
| CN(Cc1nnc(-c2ccccc2)s1)c1nc(=O)c2cc(C(F)(F)F)cc([N+](=O)[O-])c2s1 [Compound 40, 2-{methyl[(5-phenyl-1,3,4-thiadiazol-2-yl)methyl]amino}-BTZ] |  | 0.033 µM | CLint scaled [4]: 50.7 mL/min/kg; half-life [4]: 34.3 min |
| CN(Cc1nnc(-c2cccc(F)c2)s1)c1nc(=O)c2cc(C(F)(F)F)cc([N+](=O)[O-])c2s1 [Compound 41] |  | 0.024 µM |  |
| CN(Cc1nnc(-c2ccc(F)cc2)s1)c1nc(=O)c2cc(C(F)(F)F)cc([N+](=O)[O-])c2s1 [Compound 42] |  | 0.026 µM |  |
